Measurements as given in ChEMBL document CHEMBL1201862, “PubChem BioAssay data set” (2004).
Activity calls are given as the source filed them. For most assays here, no stated cut-off is given here; in the data, actives have a measured EC50 and inactives only a lower limit.

How the values were obtained:
[1] = biological target: T1, Zinc finger protein mex-5 (Caenorhabditis elegans, UniProt Q9XUB2); test: potency of MEX-5 RNA-binding blockers – biochemical, C. elegans, fluorescence polarization, dose response (AID 1960)
T1 sequence (Q9XUB2 whole entry): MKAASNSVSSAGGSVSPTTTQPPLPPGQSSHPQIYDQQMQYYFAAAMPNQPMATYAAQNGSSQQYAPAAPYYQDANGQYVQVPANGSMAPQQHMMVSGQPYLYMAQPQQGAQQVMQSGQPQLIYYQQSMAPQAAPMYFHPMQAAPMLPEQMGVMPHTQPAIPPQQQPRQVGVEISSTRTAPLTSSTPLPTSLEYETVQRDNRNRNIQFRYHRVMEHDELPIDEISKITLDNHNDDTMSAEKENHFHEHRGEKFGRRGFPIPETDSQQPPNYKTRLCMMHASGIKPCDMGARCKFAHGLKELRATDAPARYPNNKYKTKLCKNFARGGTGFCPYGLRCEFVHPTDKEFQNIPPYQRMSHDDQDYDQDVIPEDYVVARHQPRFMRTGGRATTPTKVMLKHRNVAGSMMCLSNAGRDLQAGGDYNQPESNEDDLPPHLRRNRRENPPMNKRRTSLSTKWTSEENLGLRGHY

[2] = biological target: T2, RNA-binding protein pos-1 (Caenorhabditis elegans, UniProt G5EF15); test: disruptors of C. elegans POS-1 RNA interaction – biochemical, fluorescence polarization, dose response (AID 1964);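 further: purified POS-1 fused to maltose binding protein made in E. coli; potency of compounds blocking POS-1 binding to fluorescent RNA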
T2 sequence (G5EF15 whole entry): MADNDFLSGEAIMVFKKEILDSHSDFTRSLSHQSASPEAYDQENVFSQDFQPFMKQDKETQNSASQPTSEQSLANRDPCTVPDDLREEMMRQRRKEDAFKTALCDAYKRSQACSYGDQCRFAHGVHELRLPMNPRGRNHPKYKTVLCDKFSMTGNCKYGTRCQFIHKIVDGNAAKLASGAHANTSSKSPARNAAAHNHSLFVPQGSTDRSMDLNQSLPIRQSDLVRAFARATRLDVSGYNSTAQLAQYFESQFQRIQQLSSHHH

[3] = alpha-synuclein stem-loop luciferase translation blockers – H4 neuroglioma cells, luminescence, confirmation (AID 1988); format: functional, cell-based
[4] = Luminescence Cell-Based Dose Response HTS to Identify Inhibitors of 5'UTR Stem-Loop Driven Prion Protein mRNA Translation in H4 Neuroglioblastoma Cells. [Related pubchem assays: 1827 (Project Summary), 1813 (Primary HTS)]; format: functional
[5] = luciferase reporter signal suppression in cells – H4 neuroglioma cells, luminescence, dose response (AID 1990); format: functional, cell-based
[6] = biological target: T3, High affinity choline transporter 1 (Homo sapiens, UniProt Q9GZV3); test: human choline transporter blockers, potency – cell-based, 5-point CRC, membrane potential dye, dose response (AID 504840); format: functional
T3 sequence (Q9GZV3 whole entry): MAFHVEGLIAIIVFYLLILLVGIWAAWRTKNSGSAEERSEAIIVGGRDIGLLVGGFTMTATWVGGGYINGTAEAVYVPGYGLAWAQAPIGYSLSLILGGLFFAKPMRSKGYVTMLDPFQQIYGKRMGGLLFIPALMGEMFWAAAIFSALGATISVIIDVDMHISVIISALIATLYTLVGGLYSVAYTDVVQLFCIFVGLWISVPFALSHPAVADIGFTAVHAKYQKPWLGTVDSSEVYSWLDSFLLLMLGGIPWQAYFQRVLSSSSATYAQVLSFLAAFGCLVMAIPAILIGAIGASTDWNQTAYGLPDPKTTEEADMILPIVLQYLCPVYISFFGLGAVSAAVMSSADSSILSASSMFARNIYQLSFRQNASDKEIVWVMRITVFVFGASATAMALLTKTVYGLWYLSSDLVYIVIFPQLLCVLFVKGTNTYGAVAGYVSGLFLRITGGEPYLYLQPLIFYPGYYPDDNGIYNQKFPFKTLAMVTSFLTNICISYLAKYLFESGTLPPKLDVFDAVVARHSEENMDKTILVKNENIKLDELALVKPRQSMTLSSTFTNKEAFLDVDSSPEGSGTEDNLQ

cells [7] = format: functional, cell-based
cells [8] = format: functional, cell-based; remark: listed apart in the source
Cytochrome P450 1A2 = biological target: T4, Cytochrome P450 1A2 (Homo sapiens, UniProt P05177);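 further: PubChem cytochrome P450 panel assay, CYP1A2 panel member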
T4 sequence (P05177 whole entry): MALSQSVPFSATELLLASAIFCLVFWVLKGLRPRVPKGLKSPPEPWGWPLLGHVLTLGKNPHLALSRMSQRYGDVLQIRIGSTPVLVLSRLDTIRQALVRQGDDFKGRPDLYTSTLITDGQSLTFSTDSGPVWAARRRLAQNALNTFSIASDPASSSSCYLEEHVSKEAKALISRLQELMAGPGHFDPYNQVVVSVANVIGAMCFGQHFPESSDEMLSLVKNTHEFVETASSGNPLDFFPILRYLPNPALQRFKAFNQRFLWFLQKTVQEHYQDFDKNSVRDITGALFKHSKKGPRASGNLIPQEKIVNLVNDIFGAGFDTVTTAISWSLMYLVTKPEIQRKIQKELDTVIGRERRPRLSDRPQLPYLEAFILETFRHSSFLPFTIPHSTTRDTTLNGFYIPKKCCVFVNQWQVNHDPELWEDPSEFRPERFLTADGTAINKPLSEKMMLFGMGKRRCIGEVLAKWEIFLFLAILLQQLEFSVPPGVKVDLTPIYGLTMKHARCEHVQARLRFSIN

[9] = Luminescence Cell-Based Dose Retest to Confirm Inhibitors of Cancer Stem Cells. [Related pubchem assays (depositor defined):AID2717, AID2721]; format: functional; conditions: Homo sapiens

## FC(F)(F)c1ccc2c(c1)C1C=CCC1C(c1ccncc1)N2 (stereo not drawn)
[1]
  EC50: > 300 µM (not active)
[2]
  EC50: > 300 µM (not active)

## O=C1NC(=O)N(CCc2ccc(F)cc2)C(=O)/C1=C/NCCCn1ccnc1
[1]
  EC50: > 300 µM (not active)
[2]
  EC50: > 300 µM (not active)

## COc1ccc(-c2cc3nc(C)c(CCC(=O)NC(C)CCc4ccco4)c(C)n3n2)c(OC)c1 (stereo not drawn)
[3]
  EC50: > 120 µM (not active)
[4]
  EC50: > 120 µM (not active)
[5]
  EC50: > 120 µM (not active)

## O=S(=O)(NCc1csc(-c2cccs2)n1)c1cccc(C(F)(F)F)c1
[6]
  IC50: 14.5 µM (active)

## O=C(Cn1ncc2c3ccccc3n(Cc3ccccc3)c2c1=O)NCCCN1CCCC1
[6]
  IC50: 13.2 µM (active)

## COc1ccc(N2CCN(C(=O)COc3ccc4c(C)c(C)c(=O)oc4c3C)CC2)cc1
Cells [7]
  EC50: > 350 µM (not active)
Cells [8]
  EC50: > 350 µM (not active)

## c1ccc(OCc2nc(-c3ccncc3)no2)cc1
Cells [7]
  EC50: > 350 µM (not active)
Cells [8]
  EC50: > 350 µM (not active)

## O=C(O)c1cccnc1SCc1ccccc1Cl
Cells [7]
  EC50: > 350 µM (not active)
Cells [8]
  EC50: > 350 µM (not active)

## Cc1ccccc1NC(=O)CN(C)S(=O)(=O)c1ccc(-c2ccc(O)nn2)s1
Cells [7]
  EC50: > 350 µM (not active)
Cells [8]
  EC50: > 350 µM (not active)

## O=C(O)c1cccc(N2CCCC2=O)c1
Cytochrome P450 1A2
  AC50: 14.1 µM (inconclusive)
Cells [7]
  EC50: > 350 µM (not active)
Cells [8]
  EC50: > 350 µM (not active)

## COc1cc(-c2noc(C)c2C#Cc2ccccn2)cc(OC)c1OC
[3]
  EC50: 0.25 µM (active)
[4]
  EC50: > 120 µM (not active)
[9]
  AC50: 0.394 µM (active)
[5]
  EC50: 9.32 µM (active)

## COC(=O)c1cccc(-n2c(CCC(=O)O)ccc2-c2cccs2)c1
[1]
  EC50: > 300 µM (not active)
[2]
  EC50: > 300 µM (not active)

## N#CC1=C(N)OC2=C(C(=O)CCC2)C1c1ccc(OC(=O)N2CCOCC2)cc1 (stereo not drawn)
[1]
  EC50: > 300 µM (not active)
[2]
  EC50: > 300 µM (not active)

## CCCCCCCC1CC(=O)C=C(C)C1C(=O)OCC (stereo not drawn)
Cells [7]
  EC50: > 350 µM (not active)
Cells [8]
  EC50: > 350 µM (not active)

## COc1ccc(CCNc2nncc(O)n2)cc1OC
Cells [7]
  EC50: > 350 µM (not active)
Cells [8]
  EC50: > 350 µM (not active)

## COc1ccc2c(c1)CCc1cc(C(=O)N3CCN(c4ccc(N5CCOCC5)nn4)CC3)sc1-2
[3]
  EC50: > 120 µM (not active)
[4]
  EC50: > 120 µM (not active)
[5]
  EC50: 13.6 µM (active)

## c1coc(-c2nnc3n2C2(CCCC2)Cc2ccccc2-3)c1
[3]
  EC50: > 120 µM (not active)
[4]
  EC50: > 120 µM (not active)
[5]
  EC50: > 120 µM (not active)

## CC(C)(C)c1ccc(/C=C2\Oc3cc(O)ccc3C2=O)cc1
[1]
  EC50: 28.8 µM (active)
[2]
  EC50: 31.4 µM (active)

## O=C(Nc1ccccc1Cl)N1CCN(c2ccc3nnc(-c4ccc(F)cc4)n3n2)CC1
[3]
  EC50: > 120 µM (not active)
[4]
  EC50: 15.2 µM (active)
[5]
  EC50: 13.4 µM (active)

## Cc1ccccc1NC(=O)c1ccc(F)c(S(=O)(=O)NCC2CCCO2)c1 (stereo not drawn)
[6]
  IC50: 12.3 µM (active)

## C/C(=N\NC(=O)c1nnn(-c2nonc2N)c1-c1cccs1)c1cccc(O)c1
[1]
  EC50: > 300 µM (not active)
[2]
  EC50: > 300 µM (not active)

## COC(=O)c1c(C)n(Cc2ccccc2)c2ccc(O)cc12
[3]
  EC50: > 120 µM (not active)
[4]
  EC50: > 120 µM (not active)
[5]
  EC50: > 120 µM (not active)

## CCCN(CC(=O)Nc1ccc(F)c(F)c1F)C(=O)Cn1c(=O)cnc2ccccc21
[6]
  IC50: 12.3 µM (active)

## Cc1cccn2c(=O)c3cc(C#N)/c(=N\C(=O)c4cccs4)n(CCCOC(C)C)c3nc12
[1]
  EC50: > 300 µM (not active)
[2]
  EC50: 141 µM (inconclusive)

## Cc1cc(C(=O)Nc2ccc3c(c2)OCCO3)ccc1[N+](=O)[O-]
[4]
  EC50: 13.7 µM (active)
